Test results reported in patent US20210255193A1, “LYSINE REACTIVE PROBES AND USES THEREOF” (The Scripps Research Institute, priority 2017, published 2021).

Assays:
Test in all cases: competitive isoTOP-ABPP
Assay type in all cases: binding
[1] = biological target: T1, FECH Ferrochelatase, mitochondrial (Homo sapiens, UniProt P22830); conditions: for isoTOP-ABPP ratio (R) at liganded lysine P22830_K304: 50 uM, in vitro, sol, 231
T1 construct: isoTOP-ABPP experiments performed in cell lysates (in vitro); endogenous in cells; host or cells: soluble proteome of human cancer cell lines (MDA-MB-231; Ramos and Jurkat also prepared)
T1 sequence (P22830 55-423): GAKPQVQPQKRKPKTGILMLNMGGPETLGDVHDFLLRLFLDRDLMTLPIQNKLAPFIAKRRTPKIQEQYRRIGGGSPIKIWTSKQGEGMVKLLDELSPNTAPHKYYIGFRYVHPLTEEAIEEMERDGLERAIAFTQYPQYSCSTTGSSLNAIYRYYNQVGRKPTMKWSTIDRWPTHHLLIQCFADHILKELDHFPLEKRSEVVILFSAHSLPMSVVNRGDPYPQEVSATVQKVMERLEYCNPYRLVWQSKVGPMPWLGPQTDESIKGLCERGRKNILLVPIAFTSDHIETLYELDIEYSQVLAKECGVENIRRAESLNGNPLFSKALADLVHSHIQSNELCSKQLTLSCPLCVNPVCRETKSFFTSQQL
Summary of the method: (§1)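 Cell lysate (0.5 ml) was pre-treated with fragment, 50 μM for activated esters or 100 μM for guanidinylating agents, versus DMSO, then labeled 1 h at ambient temperature with 0.1 mM STP-alkyne. Light/heavy TEV tags attached by CuAAC; R = DMSO/compound MS1 peak-area ratio, median per lysine.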

[2] = biological target: T2, GTPBP3 tRNA modification GTPase GTPBP3, mitochondrial (Homo sapiens, UniProt Q969Y2); conditions: for isoTOP-ABPP ratio (R) at liganded lysine Q969Y2_K492: sol, 231
T2 construct: isoTOP-ABPP experiments performed in cell lysates (in vitro); endogenous in cells; host or cells: soluble proteome of human cancer cell lines (MDA-MB-231; Ramos and Jurkat also prepared)
T2 sequence (Q969Y2 21-492): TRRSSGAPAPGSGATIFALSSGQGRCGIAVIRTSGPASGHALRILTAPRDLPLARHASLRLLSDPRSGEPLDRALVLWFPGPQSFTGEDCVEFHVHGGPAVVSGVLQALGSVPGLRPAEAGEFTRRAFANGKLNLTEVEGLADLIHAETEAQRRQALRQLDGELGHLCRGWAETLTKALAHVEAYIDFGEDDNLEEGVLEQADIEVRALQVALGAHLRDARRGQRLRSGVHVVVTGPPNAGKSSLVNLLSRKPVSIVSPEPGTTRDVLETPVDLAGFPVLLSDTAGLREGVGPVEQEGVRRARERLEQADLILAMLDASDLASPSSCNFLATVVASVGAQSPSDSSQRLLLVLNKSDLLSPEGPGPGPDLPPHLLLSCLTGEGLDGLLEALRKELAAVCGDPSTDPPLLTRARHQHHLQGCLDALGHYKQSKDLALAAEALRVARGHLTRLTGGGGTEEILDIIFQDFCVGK
Summary of the method: as §1

[3] = biological target: T3, HNRNPK Heterogeneous nuclear ribonucleoprotein K (Homo sapiens, UniProt P61978); conditions: for isoTOP-ABPP ratio (R) at liganded lysine P61978_K405: sol, 231
T3 construct: isoTOP-ABPP experiments performed in cell lysates (in vitro); endogenous in cells; host or cells: soluble proteome of human cancer cell lines (MDA-MB-231, Ramos, Jurkat)
Summary of the method: as §1

[4] = biological target: T4, NPEPPS Puromycin-sensitive aminopeptidase (Homo sapiens, UniProt P55786); conditions: for isoTOP-ABPP ratio (R) at liganded lysine P55786_K712: sol, 231
T4 construct: isoTOP-ABPP experiments performed in cell lysates (in vitro); endogenous in cells; host or cells: soluble proteome of human cancer cell lines (MDA-MB-231, Ramos, Jurkat)
T4 sequence (P55786 whole entry): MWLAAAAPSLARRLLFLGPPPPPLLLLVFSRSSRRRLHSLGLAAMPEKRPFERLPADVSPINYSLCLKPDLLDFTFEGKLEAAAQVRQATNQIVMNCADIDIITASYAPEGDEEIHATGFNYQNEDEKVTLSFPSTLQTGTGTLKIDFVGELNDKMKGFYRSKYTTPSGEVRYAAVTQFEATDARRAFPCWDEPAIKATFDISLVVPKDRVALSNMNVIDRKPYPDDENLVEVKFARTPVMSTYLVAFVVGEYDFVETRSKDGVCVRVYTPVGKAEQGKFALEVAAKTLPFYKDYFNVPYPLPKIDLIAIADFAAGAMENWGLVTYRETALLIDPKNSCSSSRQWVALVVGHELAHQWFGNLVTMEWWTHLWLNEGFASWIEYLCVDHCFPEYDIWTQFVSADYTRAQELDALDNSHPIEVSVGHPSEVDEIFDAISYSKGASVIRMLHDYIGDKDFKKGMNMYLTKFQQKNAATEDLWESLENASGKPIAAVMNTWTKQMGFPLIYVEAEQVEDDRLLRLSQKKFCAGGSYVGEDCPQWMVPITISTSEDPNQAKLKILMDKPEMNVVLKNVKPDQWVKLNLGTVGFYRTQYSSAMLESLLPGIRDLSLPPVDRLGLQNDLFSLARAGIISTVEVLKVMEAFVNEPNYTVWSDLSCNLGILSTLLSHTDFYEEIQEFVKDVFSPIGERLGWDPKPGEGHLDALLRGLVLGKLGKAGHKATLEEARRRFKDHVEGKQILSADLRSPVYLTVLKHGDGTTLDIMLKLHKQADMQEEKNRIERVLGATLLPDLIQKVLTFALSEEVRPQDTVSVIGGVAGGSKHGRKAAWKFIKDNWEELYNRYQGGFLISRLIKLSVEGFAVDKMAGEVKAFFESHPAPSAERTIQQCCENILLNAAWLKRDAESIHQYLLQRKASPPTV
Summary of the method: as §1

[5] = biological target: T5, RPL10 60S ribosomal protein L10 (Homo sapiens, UniProt P27635); conditions: for isoTOP-ABPP ratio (R) at liganded lysine P27635_K121: sol, 231
T5 construct: isoTOP-ABPP experiments performed in cell lysates (in vitro); endogenous in cells; host or cells: soluble proteome of human cancer cell lines (MDA-MB-231; Ramos and Jurkat also prepared)
Summary of the method: as §1

[6] = biological target: T6, RQCD1 Cell differentiation protein RCD1 homolog (Homo sapiens, UniProt Q92600); conditions: for isoTOP-ABPP ratio (R) at liganded lysine Q92600_K230: sol, 231
T6 construct: isoTOP-ABPP experiments performed in cell lysates (in vitro); endogenous in cells; host or cells: soluble proteome of human cancer cell lines (MDA-MB-231; Ramos and Jurkat also prepared)
T6 sequence (Q92600 whole entry): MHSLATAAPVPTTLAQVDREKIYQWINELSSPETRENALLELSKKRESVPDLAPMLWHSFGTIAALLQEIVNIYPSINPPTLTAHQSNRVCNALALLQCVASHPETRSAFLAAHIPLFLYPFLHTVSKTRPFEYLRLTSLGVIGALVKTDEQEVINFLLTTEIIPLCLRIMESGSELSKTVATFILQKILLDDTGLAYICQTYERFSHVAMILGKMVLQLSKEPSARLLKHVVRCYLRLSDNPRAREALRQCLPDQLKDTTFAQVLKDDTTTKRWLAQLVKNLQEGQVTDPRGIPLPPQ
Summary of the method: as §1

In the case of `CC(C)(C)OC(=O)N=C(NC(=O)OC(C)(C)C)n1cccn1` [fragment 50, reference compound], the “isoTOP-ABPP ratio, lysine P22830_K304” value ([1]; 100 uM_231_sol_in vitro) is reported as 2.3, the “isoTOP-ABPP ratio, lysine Q969Y2_K492” value ([2]; 100 uM_231_sol_in vitro) is reported as 0.9 and the “isoTOP-ABPP ratio, lysine P61978_K405” value ([3]; 100 uM_231_sol_in vitro) is reported as 1.3. The “isoTOP-ABPP ratio, lysine P55786_K712” value ([4]; 100 uM_231_sol_in vitro) was 1.6, the “isoTOP-ABPP ratio, lysine P27635_K121” value ([5]; 100 uM_231_sol_in vitro) was 1.0 and the “isoTOP-ABPP ratio, lysine Q92600_K230” value ([6]; 100 uM_231_sol_in vitro) was 1.0.
`N#Cc1ccc(C(=O)Oc2ccc([N+](=O)[O-])cc2[N+](=O)[O-])cc1` [fragment 44, 2,4-Dinitrophenyl 4-cyanobenzoate] was tested, and the “isoTOP-ABPP ratio, lysine P22830_K304” value ([1]; 50 uM_231_sol_in vitro) was 1.1, the “isoTOP-ABPP ratio, lysine Q969Y2_K492” value ([2]; 50 uM_231_sol_in vitro) was 0.9 and the “isoTOP-ABPP ratio, lysine P61978_K405” value ([3]; 50 uM_231_sol_in vitro) was 1.0. The “isoTOP-ABPP ratio, lysine P55786_K712” value ([4]; 50 uM_231_sol_in vitro) was 1.0, the “isoTOP-ABPP ratio, lysine P27635_K121” value ([5]; 50 uM_231_sol_in vitro) was 0.6 and the “isoTOP-ABPP ratio, lysine Q92600_K230” value ([6]; 50 uM_231_sol_in vitro) was 1.0.
`O=C(Oc1ccc([N+](=O)[O-])cc1[N+](=O)[O-])C(c1ccccc1)c1ccccc1` [fragment 30, 2,4-Dinitrophenyl 2,2-diphenylacetate] was tested, and the “isoTOP-ABPP reactivity ratio at lysine Q969Y2_K492” value ([2]; 50 uM, 231 sol, in vitro) was 1.5, the “isoTOP-ABPP reactivity ratio at lysine P61978_K405” value ([3]; 50 uM, 231 sol, in vitro) was 0.9 and the “isoTOP-ABPP reactivity ratio at lysine P55786_K712” value ([4]; 50 uM, 231 sol, in vitro) was 1.5. The “isoTOP-ABPP reactivity ratio at lysine P27635_K121” value ([5]; 50 uM, 231 sol, in vitro) was 1.1 and the “isoTOP-ABPP reactivity ratio at lysine Q92600_K230” value ([6]; 50 uM, 231 sol, in vitro) was 1.6.
For `O=C(ON1C(=O)CCC1=O)c1cc(C(F)(F)F)cc(C(F)(F)F)c1` [fragment 46, 3,5-Bis(trifluoromethyl)benzoic acid NHS ester], the “isoTOP-ABPP ratio, lysine P22830_K304” value ([1]; 50 uM_231_sol_in vitro) was 0.9, the “isoTOP-ABPP ratio, lysine Q969Y2_K492” value ([2]; 50 uM_231_sol_in vitro) was 1.9 and the “isoTOP-ABPP ratio, lysine P61978_K405” value ([3]; 50 uM_231_sol_in vitro) was 1.1. For the same compound, the “isoTOP-ABPP ratio, lysine P55786_K712” value ([4]; 50 uM_231_sol_in vitro) was 1.3, the “isoTOP-ABPP ratio, lysine P27635_K121” value ([5]; 50 uM_231_sol_in vitro) was 0.8 and the “isoTOP-ABPP ratio, lysine Q92600_K230” value ([6]; 50 uM_231_sol_in vitro) was 1.1.
`O=C(Oc1ccc([N+](=O)[O-])cc1[N+](=O)[O-])c1ccc(Oc2ccccc2)cc1` [fragment 39, 2,4-Dinitrophenyl 4-phenoxybenzoate] was tested, and the “isoTOP-ABPP ratio (R) at liganded lysine P22830_K304” value [1] was 1.3, the “isoTOP-ABPP ratio (R) at liganded lysine Q969Y2_K492” value ([2]; 50 uM, in vitro) was 1.2 and the “isoTOP-ABPP ratio (R) at liganded lysine P61978_K405” value ([3]; 50 uM, in vitro) was 0.8. The “isoTOP-ABPP ratio (R) at liganded lysine P55786_K712” value ([4]; 50 uM, in vitro) was 0.9, the “isoTOP-ABPP ratio (R) at liganded lysine P27635_K121” value ([5]; 50 uM, in vitro) was 1.0 and the “isoTOP-ABPP ratio (R) at liganded lysine Q92600_K230” value ([6]; 50 uM, in vitro) was 0.8.
`O=C(Oc1ccc([N+](=O)[O-])cc1[N+](=O)[O-])c1ccc(-c2ccccc2)cc1` [fragment 37, 2,4-Dinitrophenyl [1,1′-biphenyl]-4-carboxylate] was tested, and the “isoTOP-ABPP ratio (R) at liganded lysine Q969Y2_K492” value ([2]; 50 uM, in vitro) was 1.2, the “isoTOP-ABPP ratio (R) at liganded lysine P61978_K405” value ([3]; 50 uM, in vitro) was 0.9 and the “isoTOP-ABPP ratio (R) at liganded lysine P55786_K712” value ([4]; 50 uM, in vitro) was 0.9. For the same compound, the “isoTOP-ABPP ratio (R) at liganded lysine P27635_K121” value ([5]; 50 uM, in vitro) was 0.8 and the “isoTOP-ABPP ratio (R) at liganded lysine Q92600_K230” value ([6]; 50 uM, in vitro) was 0.8.
In the case of `CC(=O)Oc1ccc([N+](=O)[O-])cc1[N+](=O)[O-]` [fragment 43, 2,4-Dinitrophenyl acetate], the “isoTOP-ABPP ratio (R) at liganded lysine P22830_K304” value [1] is reported as 1.3, the “isoTOP-ABPP ratio (R) at liganded lysine Q969Y2_K492” value ([2]; 50 uM, in vitro) is reported as 1.5 and the “isoTOP-ABPP ratio (R) at liganded lysine P61978_K405” value ([3]; 50 uM, in vitro) is reported as 1.3. For the same compound, the “isoTOP-ABPP ratio (R) at liganded lysine P55786_K712” value ([4]; 50 uM, in vitro) was 2.3, the “isoTOP-ABPP ratio (R) at liganded lysine P27635_K121” value ([5]; 50 uM, in vitro) was 20.0 and the “isoTOP-ABPP ratio (R) at liganded lysine Q92600_K230” value ([6]; 50 uM, in vitro) was 6.8.
